Some test systems named below: UACC-257 melanoma; EKVX NSCLC; K-562 leukemia; IGROV1 ovarian; OVCAR-8 ovarian; HCC-2998 colon; NCI-H522 lung; SW-620 colon; SK-MEL-5 melanoma; UACC-62 melanoma.
Holding throughout (assay): DTP human tumour cell line panel, 48 h

Our source for the GI50 and TGI values is PubChem BioAssay (NCI).

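Each compound was tested at five concentrations against cells in 96-well plates for 48 hours. GI50 = concentration required for 50% inhibition of growth. TGI: concentration producing complete growth inhibition.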 A value given as a limit tells only on which side of the number the result lay.

For orientation: GI50 means the concentration that inhibits growth by half. For orientation: TGI means the concentration at which net growth stops. A high value points to lower sensitivity of the cells.

For `COc1ccc(/C=C\c2cc(OC)c(OC)c(OC)c2)c(NS(=O)(=O)c2ccc(C)cc2)c1O`, the GI50 in the assay on UACC-257 melanoma was 17.8 µM; in the assay with EKVX NSCLC it was 0.0644 µM; with K-562 leukemia, 0.0409 µM; in the assay on IGROV1 ovarian, 0.075 µM; with OVCAR-8 ovarian, 0.0498 µM; in the assay with HCC-2998 colon it was 0.0904 µM. Also, the GI50 in the assay on NCI-H522 lung is 0.0377 µM; with SW-620 colon it was 0.0447 µM; with SK-MEL-5 melanoma, 0.0359 µM; with UACC-62 melanoma, 0.0428 µM. Moreover, the TGI with UACC-257 melanoma was greater than 100 µM; in the assay with EKVX NSCLC it was greater than 100 µM; in the assay with K-562 leukemia, greater than 100 µM; with IGROV1 ovarian it was greater than 100 µM; in the assay on OVCAR-8 ovarian it was greater than 100 µM; in the assay on HCC-2998 colon, 10.9 µM. For the same molecule, the TGI is greater than 35 µM in the assay on NCI-H522 lung, greater than 100 µM in the assay with SW-620 colon, 0.195 µM with SK-MEL-5 melanoma and greater than 100 µM in the assay with UACC-62 melanoma.
With `CC[C@H](C)[C@H](NC(=O)C12C3C4C1C1C2C3C41NC(C)=O)C(=O)N(C)[C@H](C[C@@H](OC(C)=O)c1nc(C(=O)N[C@@H](Cc2ccccc2)C[C@H](C)C(=O)OC)cs1)C(C)C` (some centres not stated), the GI50 was 0.563 µM in the assay with UACC-257 melanoma; 2.81 µM in the assay with EKVX NSCLC; 0.118 µM in the assay on K-562 leukemia; 0.593 µM in the assay on IGROV1 ovarian; 0.614 µM in the assay on OVCAR-8 ovarian; 0.279 µM with HCC-2998 colon. Besides, the GI50 in the assay with NCI-H522 lung was 0.0637 µM; in the assay with SW-620 colon, 0.206 µM; in the assay on SK-MEL-5 melanoma, 0.152 µM; in the assay on UACC-62 melanoma, 0.112 µM. The concentration for total growth inhibition (TGI) with UACC-257 melanoma, in the assay with EKVX NSCLC, with K-562 leukemia, in the assay on IGROV1 ovarian, with OVCAR-8 ovarian and in the assay on HCC-2998 colon was greater than 14.3 µM in each case. The TGI is 0.513 µM with NCI-H522 lung, greater than 14.3 µM in the assay with SW-620 colon, 2.98 µM in the assay on SK-MEL-5 melanoma and greater than 14.3 µM in the assay on UACC-62 melanoma.
Take `COc1cc(C2C(C#N)=C(N)OC3=C2C(=O)c2ccccc2C3=O)cc(OC)c1OC` (configuration not stated): the GI50 was 1.18 µM with UACC-257 melanoma; 12.6 µM with EKVX NSCLC; 0.415 µM in the assay on K-562 leukemia; 2.24 µM with IGROV1 ovarian; 1.12 µM with OVCAR-8 ovarian; 2.52 µM in the assay on HCC-2998 colon. Also, the GI50 with NCI-H522 lung is 0.26 µM; with SW-620 colon, 0.413 µM; with SK-MEL-5 melanoma, 0.439 µM; in the assay with UACC-62 melanoma it was 0.396 µM. In addition, the TGI is 13.3 µM in the assay on UACC-257 melanoma; 34 µM with EKVX NSCLC; greater than 100 µM in the assay with K-562 leukemia; 19.2 µM with IGROV1 ovarian; 24.1 µM in the assay with OVCAR-8 ovarian; 18.7 µM with HCC-2998 colon. The TGI worked out at 16.8 µM in the assay on NCI-H522 lung, 25.9 µM in the assay with SW-620 colon, 1.81 µM in the assay with SK-MEL-5 melanoma and 2.02 µM in the assay on UACC-62 melanoma.
As to `COc1ccc(NC(=O)c2cc(OC)c(OC)c(OC)c2)cc1O`, the GI50 with EKVX NSCLC was greater than 100 µM; in the assay on K-562 leukemia, 0.489 µM; with IGROV1 ovarian it was 8.86 µM; in the assay with OVCAR-8 ovarian it was 4.98 µM; in the assay with HCC-2998 colon, 14.6 µM; with SW-620 colon, 1.11 µM. The GI50 with SK-MEL-5 melanoma is 1.43 µM; in the assay on UACC-62 melanoma, 2.66 µM. Besides, the TGI in the assay with EKVX NSCLC, in the assay on K-562 leukemia, in the assay with IGROV1 ovarian, in the assay with OVCAR-8 ovarian, in the assay on HCC-2998 colon and in the assay on SW-620 colon was greater than 100 µM in each case. The results for the TGI with SK-MEL-5 melanoma and in the assay with UACC-62 melanoma were 48.6 µM and greater than 100 µM, respectively.
Consider `CC1=C2C(c3ccccc3)(c3ccccc3)C3C=CC2(C=N3)N(C(=O)NC2CCCCC2)C1=O` (configuration not stated), for which the TGI was 30.9 µM in the assay on UACC-257 melanoma; 28.7 µM in the assay on EKVX NSCLC; 34.6 µM in the assay with K-562 leukemia; 35.7 µM in the assay with IGROV1 ovarian; 33.6 µM in the assay on OVCAR-8 ovarian; 32.4 µM in the assay with HCC-2998 colon. Also, the TGI with SW-620 colon was 31.9 µM; in the assay on SK-MEL-5 melanoma, 30.5 µM; in the assay with UACC-62 melanoma, 33.4 µM.
Consider `COc1ccc(NC(=O)C(=O)C2NC(=S)NC2=O)c(OC)c1` (configuration not stated), for which the TGI with UACC-257 melanoma, in the assay on EKVX NSCLC, in the assay with K-562 leukemia, in the assay with IGROV1 ovarian, in the assay on OVCAR-8 ovarian and with HCC-2998 colon was greater than 100 µM in each case. In addition, the TGI in the assay on SW-620 colon and in the assay on UACC-62 melanoma was greater than 100 µM throughout.
`C/C(=N\Nc1ccc([N+](=O)[O-])cc1)C(=O)N(C)Nc1ccccc1`: the concentration for total growth inhibition (TGI) with UACC-257 melanoma, in the assay on EKVX NSCLC, in the assay with K-562 leukemia, with IGROV1 ovarian, with OVCAR-8 ovarian and in the assay with HCC-2998 colon was greater than 100 µM in each case. In addition, the TGI in the assay on NCI-H522 lung, with SW-620 colon and with UACC-62 melanoma was greater than 100 µM in each case.
`Cc1ccc(NC(=O)C(=O)Cc2nc3ccccc3o2)c(C)c1`: the TGI in the assay with UACC-257 melanoma, with EKVX NSCLC, in the assay with K-562 leukemia, in the assay with IGROV1 ovarian, in the assay with OVCAR-8 ovarian and with HCC-2998 colon was greater than 100 µM throughout. The TGI with SW-620 colon and in the assay on UACC-62 melanoma was greater than 100 µM throughout.
On to `CCN(CC)CCCNC(=O)Cc1ccccc1Nc1c(Cl)cccc1Cl`, for which the TGI in the assay with UACC-257 melanoma amounted to 13.2 µM; in the assay on EKVX NSCLC, 28.2 µM; in the assay on K-562 leukemia, 21.6 µM; with IGROV1 ovarian it was 36.5 µM; in the assay with OVCAR-8 ovarian, 31.9 µM; in the assay with HCC-2998 colon it was 11.5 µM. Further, the TGI amounted to 32.8 µM with SW-620 colon, 14.1 µM with SK-MEL-5 melanoma and 29.5 µM in the assay on UACC-62 melanoma.
In the case of `c1ccc(-c2nc(N3CCNCC3)c3nc(-c4ccccc4)oc3n2)cc1`, the GI50 in the assay with UACC-257 melanoma was 1.93 µM; in the assay with EKVX NSCLC, 1.78 µM; in the assay on K-562 leukemia, 1.44 µM; with IGROV1 ovarian, 1.65 µM; in the assay with HCC-2998 colon it was 1.81 µM; in the assay with NCI-H522 lung, 1.81 µM. The GI50 in the assay on SW-620 colon was 1.86 µM; in the assay with SK-MEL-5 melanoma, 1.8 µM; with UACC-62 melanoma, 1.78 µM. Moreover, the TGI stood at 3.81 µM in the assay with UACC-257 melanoma; 3.39 µM in the assay with EKVX NSCLC; 4.22 µM in the assay on K-562 leukemia; 3.14 µM in the assay on IGROV1 ovarian; 3.49 µM in the assay with HCC-2998 colon; 3.86 µM in the assay on NCI-H522 lung. Further, the TGI in the assay on SW-620 colon came out at 3.57 µM; in the assay on SK-MEL-5 melanoma, 3.23 µM; with UACC-62 melanoma, 3.23 µM.
